What is called IC50 is the midpoint of a concentration-inhibition curve. High values mean a need for much substance, low ones inhibition by little substance.

Data on 21 compounds can be found in ChEMBL document CHEMBL1135315, “Spirocyclic NK(1) antagonists I: [4.5] and [5.5]-spiroketals” (Bioorg Med Chem Lett, 2002).

T1 sequence (P25103 whole entry): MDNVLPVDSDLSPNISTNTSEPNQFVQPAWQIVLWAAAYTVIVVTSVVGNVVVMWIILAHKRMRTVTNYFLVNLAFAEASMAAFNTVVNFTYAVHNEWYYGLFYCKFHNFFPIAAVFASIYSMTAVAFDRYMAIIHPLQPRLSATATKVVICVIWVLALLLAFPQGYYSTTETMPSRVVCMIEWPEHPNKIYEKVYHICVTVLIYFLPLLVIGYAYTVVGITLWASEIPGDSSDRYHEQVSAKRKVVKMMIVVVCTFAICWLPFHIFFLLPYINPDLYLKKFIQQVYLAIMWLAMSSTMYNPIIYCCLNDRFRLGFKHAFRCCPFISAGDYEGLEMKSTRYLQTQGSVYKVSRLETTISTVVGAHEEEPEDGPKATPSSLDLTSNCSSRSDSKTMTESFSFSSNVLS

The subject of one assay is Gerbillinae. Description: CNS penetration was assessed by compounds ability in gerbils to block the foot-tapping induced by central infusion of the NK1-selective agonist GR-73632 when administered intravenously. It is filed as functional. The note with it: iv, read-out: ID50 (the source's name).
Take `CN(C)Cc1nn[nH]c1CN1CCOC2(CCC(c3ccccc3OC(F)(F)F)CO2)C1c1ccc(F)cc1` (stereo not drawn): the ED50 turned out to be 0.6 mg/kg.
Consider `CN(C)Cc1nn[nH]c1CN1CCOC2(CCC(c3ccccc3C(F)(F)F)CO2)C1c1ccc(F)cc1` (stereo not drawn), for which the ED50 was 1.1 mg/kg.

The next assay has as its target T1, Substance-P receptor (Homo sapiens, UniProt P25103). As to the kind of experiment: Displacement of [125I]-labeled substance P from human Tachykinin receptor 1 expressed in CHO cells. Type of assay: cell-based.
Conditions: not given
(In general: Displacement assays read how much labelled ligand stays bound in the presence of the test substance.)
With `Fc1ccc([C@@H]2NCCOC23COC[C@H](c2ccccc2)C3)cc1` (stereo partly drawn), the concentration for half-maximal inhibition (IC50) was 99 nM. In other words, the double-digit nanomolar range.
On the same count and under the same terms, next, `COc1ccc(C(C)C)cc1[C@H]1COCC2(C1)OCCN[C@H]2c1ccc(F)cc1` (stereo partly drawn): 2.8 nM.
`COc1cccc([C@H]2COCC3(C2)OCCN[C@H]3c2ccc(F)cc2)c1` (stereo partly drawn) yielded an IC50 of 183 nM.
Still for that read-out and setting: next, `COc1ccc(F)cc1[C@H]1COCC2(C1)OCCN[C@H]2c1ccc(F)cc1` (stereo partly drawn): 10 nM; `c1ccc(C2CCC3(OCCNC3c3ccccc3)OC2)cc1` (stereo not drawn): 170 nM; `COc1ccc(OC)c([C@H]2COCC3(C2)OCCN[C@H]3c2ccc(F)cc2)c1` (stereo partly drawn): 16 nM.
The same measure, in the same setting: for `Fc1ccc([C@@H]2NCCOC23COC[C@H](c2ccccc2C(F)(F)F)C3)cc1` (stereo partly drawn) the value was 24 nM; for `COc1ccccc1[C@H]1COCC2(C1)OCCN(Cc1n[nH]c(O)n1)[C@H]2c1ccc(F)cc1` (stereo partly drawn), 0.56 nM.
On the same count and under the same terms, for `CN(C)Cc1nn[nH]c1CN1CCOC2(CCC(c3ccccc3OC(F)(F)F)CO2)C1c1ccc(F)cc1` (stereo not drawn) the value was 1.4 nM.
With `CN(C)Cc1nn[nH]c1CN1CCOC2(CCC(c3ccccc3C(F)(F)F)CO2)C1c1ccc(F)cc1` (stereo not drawn), the IC50 came out at 1.1 nM. This IC50 and that of the compound before are within 1.5-fold of each other.
As to `COc1ccc(-n2nnnc2C(F)(F)F)cc1[C@H]1COCC2(C1)OCCN(Cc1n[nH]c(O)n1)[C@H]2c1ccc(F)cc1` (stereo partly drawn), the half-inhibitory concentration (IC50) turned out to be 0.1 nM. Against the preceding compound, the IC50 is about 11-fold lower.
Same read-out and setting: next, `COc1ccccc1[C@H]1COCC2(C1)OCCN[C@H]2c1ccc(F)cc1` (stereo partly drawn): 13 nM; `O=c1[nH]nc(CN2CCOC3(CCC(c4ccccc4)CO3)C2c2ccccc2)[nH]1` (stereo not drawn): 19 nM; `Fc1ccc(C2NCCOC23CCC(c2cccc(C(F)(F)F)c2)CO3)cc1` (stereo not drawn): 513 nM.
The same measure, in the same setting: next, `Fc1ccc([C@@H]2NCCOC23COC[C@H](c2cccc(C(F)(F)F)c2)C3)cc1` (stereo partly drawn): 30 nM.

The next assay has as its target T1, Substance-P receptor. As to the kind of experiment: Percent displacement of [125I]-labeled substance P from the cloned human Tachykinin receptor 1 expressed in CHO cells at 1 uM.
Conditions: not given
Type of assay: cell-based.
On to `Fc1ccc([C@@H]2NCCO[C@@]23CC[C@H](c2ccccc2C(F)(F)F)CO3)cc1`, for which the Affinity came to 44%.
The same measure, in the same setting: next, `Fc1ccc([C@@H]2NCCO[C@]23CC[C@@H](c2ccccc2C(F)(F)F)CO3)cc1`: 47%.

The next assay concerns the target T1, Substance-P receptor. As to the kind of experiment: Percent displacement of [125I]-labeled substance P from the cloned human Tachykinin receptor 1 expressed in CHO cells at a concentration of 1 uM of the compound.
Conditions: not given
It is filed as cell-based.
In the case of `COc1ccc([C@H]2COCC3(C2)OCCN[C@H]3c2ccc(F)cc2)cc1` (stereo partly drawn), the Affinity came out at 27%.
`Fc1ccc(C2NCCOC23CCC(c2ccc(C(F)(F)F)cc2)CO3)cc1` (stereo not drawn) gave an Affinity of 55%.

Another assay has as its target T1, Substance-P receptor. As to the kind of experiment: Displacement of [125I]-substance P from human Tachykinin receptor 1.
Conditions: not given
The compound `Fc1ccc([C@@H]2NCCO[C@@]23CC[C@@H](c2ccccc2C(F)(F)F)CO3)cc1` returned a half-inhibitory concentration (IC50) of 28 nM.
Still for that read-out and setting: next, `Fc1ccc([C@@H]2NCCO[C@]23CC[C@H](c2ccccc2C(F)(F)F)CO3)cc1`: 400 nM.
